In ChEMBL document CHEMBL1142902, “Inhibition of FLT3 and PDGFR tyrosine kinase activity by bis(benzo[b]furan-2-yl)methanones” (Bioorg Med Chem, 2007):

Tests used:
[1] = molecular target: Platelet-derived growth factor receptor beta (Mus musculus, UniProt P05622); experiment: Inhibition of endogenous PDGFRbeta autophosphorylation in Swiss 3T3 fibroblasts
[2] = molecular target: T1, Receptor-type tyrosine-protein kinase FLT3 (Homo sapiens, UniProt P36888); experiment: Inhibition of endogenous FLT3 autophosphorylation in EOL1 cells; format: cell-based
T1 sequence (P36888 whole entry): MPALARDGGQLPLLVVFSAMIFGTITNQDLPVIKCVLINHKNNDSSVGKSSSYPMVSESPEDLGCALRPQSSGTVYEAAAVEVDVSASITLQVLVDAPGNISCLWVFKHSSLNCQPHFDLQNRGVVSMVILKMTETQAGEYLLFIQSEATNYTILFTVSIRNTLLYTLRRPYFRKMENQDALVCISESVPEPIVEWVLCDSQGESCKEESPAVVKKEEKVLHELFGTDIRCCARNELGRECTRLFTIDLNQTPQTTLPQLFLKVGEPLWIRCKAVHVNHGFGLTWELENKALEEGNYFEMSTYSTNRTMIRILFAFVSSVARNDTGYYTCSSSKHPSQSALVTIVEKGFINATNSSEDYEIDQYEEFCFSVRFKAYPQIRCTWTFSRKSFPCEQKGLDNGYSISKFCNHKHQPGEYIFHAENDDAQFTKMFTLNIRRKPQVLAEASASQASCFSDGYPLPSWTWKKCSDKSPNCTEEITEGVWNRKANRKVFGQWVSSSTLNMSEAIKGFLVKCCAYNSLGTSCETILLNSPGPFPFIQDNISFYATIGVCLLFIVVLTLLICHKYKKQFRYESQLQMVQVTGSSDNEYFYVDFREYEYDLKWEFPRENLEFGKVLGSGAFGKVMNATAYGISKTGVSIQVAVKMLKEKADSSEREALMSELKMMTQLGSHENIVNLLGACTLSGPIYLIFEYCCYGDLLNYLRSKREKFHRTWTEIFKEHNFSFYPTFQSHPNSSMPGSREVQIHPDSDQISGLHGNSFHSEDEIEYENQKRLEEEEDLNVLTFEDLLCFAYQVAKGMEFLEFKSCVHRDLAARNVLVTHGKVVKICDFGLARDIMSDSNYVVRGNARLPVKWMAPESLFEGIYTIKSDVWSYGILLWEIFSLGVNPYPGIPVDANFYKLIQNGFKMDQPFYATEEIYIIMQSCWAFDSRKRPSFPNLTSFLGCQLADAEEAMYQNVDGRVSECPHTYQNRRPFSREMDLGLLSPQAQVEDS

Sequence of Platelet-derived growth factor receptor beta (P05622 whole entry): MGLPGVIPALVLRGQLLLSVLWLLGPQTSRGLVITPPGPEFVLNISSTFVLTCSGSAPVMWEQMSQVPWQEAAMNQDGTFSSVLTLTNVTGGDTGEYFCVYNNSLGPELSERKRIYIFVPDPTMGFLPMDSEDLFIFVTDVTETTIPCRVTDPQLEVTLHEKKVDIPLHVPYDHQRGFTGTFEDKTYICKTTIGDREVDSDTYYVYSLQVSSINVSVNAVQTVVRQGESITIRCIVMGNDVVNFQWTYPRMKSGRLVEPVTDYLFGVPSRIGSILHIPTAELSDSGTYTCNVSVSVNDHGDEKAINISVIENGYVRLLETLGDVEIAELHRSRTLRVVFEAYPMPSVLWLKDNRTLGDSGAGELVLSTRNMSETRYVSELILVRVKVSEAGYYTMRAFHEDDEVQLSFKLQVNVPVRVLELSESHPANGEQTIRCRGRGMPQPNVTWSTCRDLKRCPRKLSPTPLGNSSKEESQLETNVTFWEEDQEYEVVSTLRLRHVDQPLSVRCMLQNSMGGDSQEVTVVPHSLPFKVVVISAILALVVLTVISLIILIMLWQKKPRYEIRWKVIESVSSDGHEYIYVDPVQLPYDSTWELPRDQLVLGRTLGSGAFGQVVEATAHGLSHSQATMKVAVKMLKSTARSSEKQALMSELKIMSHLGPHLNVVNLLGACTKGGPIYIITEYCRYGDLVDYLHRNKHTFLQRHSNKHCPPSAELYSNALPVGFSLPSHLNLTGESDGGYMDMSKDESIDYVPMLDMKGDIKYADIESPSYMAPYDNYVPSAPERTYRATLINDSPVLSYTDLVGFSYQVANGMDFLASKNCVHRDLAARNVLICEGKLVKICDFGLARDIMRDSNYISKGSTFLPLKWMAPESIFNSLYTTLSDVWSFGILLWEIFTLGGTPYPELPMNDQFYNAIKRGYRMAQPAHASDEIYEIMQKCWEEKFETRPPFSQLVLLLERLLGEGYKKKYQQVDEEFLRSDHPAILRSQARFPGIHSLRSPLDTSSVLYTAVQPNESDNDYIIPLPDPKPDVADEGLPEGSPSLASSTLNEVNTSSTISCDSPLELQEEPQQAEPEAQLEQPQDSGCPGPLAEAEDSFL

| Structure (SMILES) | IC50 [1] | IC50 [2] |
| --- | --- | --- |
| COc1ccc2oc(C(=O)c3cc4cc(OC)ccc4o3)cc2c1 | 1 µM | > 30 µM |
| COc1ccc2cc(C(=O)c3cc4ccc(OC)cc4o3)oc2c1 | > 30 µM | > 30 µM |
| O=C(c1cc2cc(O)ccc2o1)c1cc2cc(O)ccc2o1 | 0.6 µM |  |
| O=C(c1cc2ccc(O)cc2o1)c1cc2ccc(O)cc2o1 | 9.7 µM |  |
| O=C(c1cc2cccc(O)c2o1)c1cc2cccc(O)c2o1 | 20 µM | > 30 µM |
| CC(=O)Oc1ccc2oc(C(=O)c3cc4cc(OC(C)=O)ccc4o3)cc2c1 | 0.7 µM |  |
| O=C(c1cc2ccccc2[nH]1)c1cc2ccccc2o1 | 1.07 µM |  |
| O=C(c1cc2cc(O)ccc2[nH]1)c1cc2cc(O)ccc2o1 | 0.2 µM |  |
| O=C(c1cc2ccccc2o1)c1cc2ccccc2o1 | 1.2 µM |  |
| Nc1ccc2oc(C(=O)c3cc4cc(N)ccc4o3)cc2c1 | 1.2 µM |  |
| COc1cccc2oc(C(=O)c3cc4c(OC)cccc4o3)cc12 | > 30 µM | > 30 µM |
| COc1cccc2cc(C(=O)c3cc4cccc(OC)c4o3)oc12 | > 30 µM | > 30 µM |
| Cc1cc2ncc(-c3ccccc3)nc2cc1C [AG1295] | 5.4 µM |  |
